The numbers were not newly measured in patent US9095515B2, “Ezetimibe compositions” (Sanovel Ilac Sanayi Ve Ticaret Anonim Sirketi, priority 2009, dated 2015), which cites them from elsewhere.

The conditions of the data set: reported.

Each structure is given as a SMILES string.

For `O=C1[C@H](CC[C@H](O)c2ccc(F)cc2)[C@@H](c2ccc(O)cc2)N1c1ccc(F)cc1` [Ezetimibe, (3R,4S)-1-(4-fluorophenyl)-3-[(3S)-3-(4-fluorophenyl)-3-hydroxypropyl]-4-(4-hydroxyphenyl)azetidin-2-one], the solubility in water result is recorded as “practically insoluble”.
